Measurements from ChEMBL document CHEMBL3885881, “DrugMatrix”.

Organism: Rattus norvegicus
Assay: DrugMatrix - Regimen: Daily Repeat
Assay type: toxicity, organism-based, Sprague-Dawley
Set-up: regimen Daily Repeat, gender Male, age 6-8 weeks
Conditions: in vivo, po, route oral GAVAGE, vehicle .5 % CMC; for ABSOLUTE BASOPHIL / ABSOLUTE EOSINOPHIL / ABSOLUTE LYMPHOCYTE / ABSOLUTE MONOCYTE / ABSOLUTE SEGMENTED NEUTROPHIL / BASOPHIL / EOSINOPHIL / ERYTHROCYTE COUNT / HEMATOCRIT / HEMOGLOBIN / LEUKOCYTE COUNT / LYMPHOCYTE / MEAN CORPUSCULAR HEMOGLOBIN / MEAN CORPUSCULAR HEMOGLOBIN CONCENTRATION / MEAN CORPUSCULAR VOLUME / MONOCYTE / NEUTROPHIL / NUCLEATED RED BLOOD CELLS / PLATELET COUNT: tissue Blood; for ALANINE AMINOTRANSFERASE / ALBUMIN / ALKALINE PHOSPHATASE / ASPARTATE AMINOTRANSFERASE / BLOOD UREA NITROGEN / CARBON DIOXIDE / CHLORIDE / CHOLESTEROL / CREATINE PHOSPHOKINASE / CREATININE / GLUCOSE / LACTATE DEHYDROGENASE / LIPASE / PHOSPHORUS / POTASSIUM / SODIUM / TOTAL BILIRUBIN / TOTAL PROTEIN / URIC ACID: tissue Plasma
[1] = 0 mg/kg, 72 h, dose level Control, time 3 day
[2] = 0 mg/kg, 120 h, dose level Control, time 5 day
[3] = 29 mg/kg, 72 h, dose level Low, time 3 day

NC(=O)NC(=O)Cc1ccccc1 [PHENACEMIDE]
ABSOLUTE BASOPHIL [1]: 0 CELLS/uL
ABSOLUTE EOSINOPHIL [1]: 15.17 CELLS/uL
ABSOLUTE LYMPHOCYTE [1]: 10149.83 CELLS/uL
ABSOLUTE MONOCYTE [1]: 193.33 CELLS/uL
ABSOLUTE SEGMENTED NEUTROPHIL [1]: 1575 CELLS/uL
BASOPHIL [1]: 0%
EOSINOPHIL [1]: 0.17%
ERYTHROCYTE COUNT [1]: 5.53 x10E6/uL
HEMATOCRIT [1]: 34.7%
HEMOGLOBIN [1]: 12.78 G/DL
LEUKOCYTE COUNT [1]: 11.93 x10E3/uL
LYMPHOCYTE [1]: 85.5%
MEAN CORPUSCULAR HEMOGLOBIN [1]: 23.15 pg
MEAN CORPUSCULAR HEMOGLOBIN CONCENTRATION [1]: 36.9 G/DL
MEAN CORPUSCULAR VOLUME [1]: 62.82 fL
MONOCYTE [1]: 1.5%
NEUTROPHIL [1]: 12.83%
NUCLEATED RED BLOOD CELLS [1]: 0.5 /100WBC
PLATELET COUNT [1]: 994.17 x10E3/uL
ALANINE AMINOTRANSFERASE [1]: 48.17 u/L
ALBUMIN [1]: 4.37 G/DL
ALKALINE PHOSPHATASE [1]: 436.5 u/L
ASPARTATE AMINOTRANSFERASE [1]: 83.17 u/L
BLOOD UREA NITROGEN [1]: 14.67 mg/dL
CARBON DIOXIDE [1]: 30.83 mmol/L
CHLORIDE [1]: 99.17 MEQ/L
CHOLESTEROL [1]: 86.33 mg/dL
CREATINE PHOSPHOKINASE [1]: 243.33 u/L
CREATININE [1]: 0.25 mg/dL
GLUCOSE [1]: 158 mg/dL
LACTATE DEHYDROGENASE [1]: 262.33 u/L
LIPASE [1]: 11 u/L
PHOSPHORUS [1]: 12.07 mg/dL
POTASSIUM [1]: 6.52 MEQ/L
SODIUM [1]: 142.45 MEQ/L
TOTAL BILIRUBIN [1]: 0.17 mg/dL
TOTAL PROTEIN [1]: 6.25 G/DL
URIC ACID [1]: 1.42 mg/dL
ABSOLUTE BASOPHIL [2]: 0 CELLS/uL
ABSOLUTE EOSINOPHIL [2]: 0 CELLS/uL
ABSOLUTE LYMPHOCYTE [2]: 10076.67 CELLS/uL
ABSOLUTE MONOCYTE [2]: 124 CELLS/uL
ABSOLUTE SEGMENTED NEUTROPHIL [2]: 966 CELLS/uL
BASOPHIL [2]: 0%
EOSINOPHIL [2]: 0%
ERYTHROCYTE COUNT [2]: 5.57 x10E6/uL
HEMATOCRIT [2]: 33.37%
HEMOGLOBIN [2]: 12.73 G/DL
LEUKOCYTE COUNT [2]: 11.17 x10E3/uL
LYMPHOCYTE [2]: 90.33%
MEAN CORPUSCULAR HEMOGLOBIN [2]: 22.9 pg
MEAN CORPUSCULAR HEMOGLOBIN CONCENTRATION [2]: 38.18 G/DL
MEAN CORPUSCULAR VOLUME [2]: 59.97 fL
MONOCYTE [2]: 1%
NEUTROPHIL [2]: 8.67%
NUCLEATED RED BLOOD CELLS [2]: 0 /100WBC
PLATELET COUNT [2]: 1078 x10E3/uL
ALANINE AMINOTRANSFERASE [2]: 37.17 u/L
ALBUMIN [2]: 4.2 G/DL
ALKALINE PHOSPHATASE [2]: 322.17 u/L
ASPARTATE AMINOTRANSFERASE [2]: 67.67 u/L
BLOOD UREA NITROGEN [2]: 14 mg/dL
CARBON DIOXIDE [2]: 27.67 mmol/L
CHLORIDE [2]: 102.17 MEQ/L
CHOLESTEROL [2]: 67.67 mg/dL
CREATINE PHOSPHOKINASE [2]: 171.83 u/L
CREATININE [2]: 0.27 mg/dL
GLUCOSE [2]: 172 mg/dL
LACTATE DEHYDROGENASE [2]: 85.33 u/L
LIPASE [2]: 8.67 u/L
PHOSPHORUS [2]: 12 mg/dL
POTASSIUM [2]: 6.09 MEQ/L
SODIUM [2]: 144.82 MEQ/L
TOTAL BILIRUBIN [2]: 0.13 mg/dL
TOTAL PROTEIN [2]: 6.07 G/DL
URIC ACID [2]: 2.13 mg/dL
ABSOLUTE BASOPHIL [3]: 0 CELLS/uL
ABSOLUTE EOSINOPHIL [3]: 0 CELLS/uL
ABSOLUTE LYMPHOCYTE [3]: 6638.67 CELLS/uL
ABSOLUTE MONOCYTE [3]: 81.67 CELLS/uL
ABSOLUTE SEGMENTED NEUTROPHIL [3]: 1179.67 CELLS/uL
BASOPHIL [3]: 0%
EOSINOPHIL [3]: 0%
ERYTHROCYTE COUNT [3]: 4.84 x10E6/uL
HEMATOCRIT [3]: 29.67%
HEMOGLOBIN [3]: 11.57 G/DL
LEUKOCYTE COUNT [3]: 7.9 x10E3/uL
LYMPHOCYTE [3]: 84%
MEAN CORPUSCULAR HEMOGLOBIN [3]: 23.9 pg
MEAN CORPUSCULAR HEMOGLOBIN CONCENTRATION [3]: 39 G/DL
MEAN CORPUSCULAR VOLUME [3]: 61.37 fL
MONOCYTE [3]: 1%
NEUTROPHIL [3]: 15%
NUCLEATED RED BLOOD CELLS [3]: 0.67 /100WBC
PLATELET COUNT [3]: 982 x10E3/uL
ALANINE AMINOTRANSFERASE [3]: 51 u/L
ALBUMIN [3]: 4.1 G/DL
ALKALINE PHOSPHATASE [3]: 430.67 u/L
ASPARTATE AMINOTRANSFERASE [3]: 87.33 u/L
BLOOD UREA NITROGEN [3]: 15.67 mg/dL
CARBON DIOXIDE [3]: 30 mmol/L
CHLORIDE [3]: 101 MEQ/L
CHOLESTEROL [3]: 78.67 mg/dL
CREATINE PHOSPHOKINASE [3]: 358 u/L
CREATININE [3]: 0.27 mg/dL
GLUCOSE [3]: 152.67 mg/dL
LACTATE DEHYDROGENASE [3]: 97 u/L
LIPASE [3]: 9.67 u/L
PHOSPHORUS [3]: 12.5 mg/dL
POTASSIUM [3]: 6.3 MEQ/L
SODIUM [3]: 145.1 MEQ/L
TOTAL BILIRUBIN [3]: 0.13 mg/dL
TOTAL PROTEIN [3]: 5.83 G/DL
URIC ACID [3]: 0.97 mg/dL
